The text below walks through data of PubChem BioAssay (NCI).

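Five compound concentrations were applied to cells in 96-well plates for 48 hours; endpoints were derived by simple linear interpolation of the resulting dose-response curve. The concentration for full growth arrest is given as TGI.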 Where a SMILES comes first, the peptide text is derived from it. [ ]: non-standard residue; d: D form. The star is where a group is joined. Bn2Val = CC(C)[C@@H](C(=O)*)N(Cc1ccccc1)Cc1ccccc1; NMeV = CN[C@H](C(=O)O)C(C)C; X29 = COc1ccc(CN*)c(OC)c1; dNMeA = CN[C@H](C)C(=O)O Some results are limits rather than exact numbers.

Holding throughout (assay): growth of human tumour cells (NCI), 48 h
In assay [1] the test system is HS 578T breast.
The test system of assay [2] is SF-268 CNS.
The subject of assay [3] is A549 NSCLC.
Assay [4] concerns OVCAR-4 ovarian.
Assay [5] concerns HOP-92 NSCLC.
Assay [6] has as its system SK-MEL-28 melanoma.
In assay [7] the test system is HOP-62 NSCLC.
Assay [8] deals with NCI-H23 lung.
In assay [9] the test system is NCI-H226 lung.
Assay [10] deals with EKVX NSCLC.

On to `CCOC(=O)C(NC(=O)CC)(Nc1ccc(S(=O)(=O)Nc2onc(C)c2C)cc1)C(F)(F)F` (stereo not given), for which the TGI in assay [1], in [2], in assay [3], in assay [4], in assay [5] and in assay [6] was greater than 100 µM in each case. The TGI in [7], in assay [8], in [9] and in assay [10] was greater than 100 µM throughout.

Take `O=C(Sc1c(-c2ccccc2)c(=O)n(-c2ccccc2)c(=S)n1-c1ccccc1)c1cccs1`: the TGI in assay [1], in assay [2], in assay [3], in assay [4], in [5] and in assay [6] was greater than 100 µM in each case. Besides, the TGI in assay [7], in [8], in assay [9] and in assay [10] was greater than 100 µM throughout.

For the molecule `COc1ccccc1N=Nc1c(O)c(S(=O)(=O)O)cc2cc(S(=O)(=O)O)ccc12`, the TGI in assay [1], in assay [2], in assay [3], in assay [4], in [5] and in assay [6] was greater than 100 µM throughout. Besides, the TGI in assay [7], in assay [8], in [9] and in [10] was greater than 100 µM in each case.

`CCOC(=O)c1c(C)nc2c(c1-c1cn(-c3ccccc3)nc1-c1ccccc1)C(=O)c1ccccc1-2`: the TGI in assay [1], in [2], in [3], in [4], in [5] and in [6] was greater than 100 µM in each case. The TGI in assay [7], in assay [8], in assay [9] and in assay [10] was greater than 100 µM throughout.

Turning to `COC(=O)CCc1c(Cc2ccc[nH]2)[nH]c(C(=O)OCc2ccccc2)c1C`, the TGI was 88.5 µM in [1]; 53.7 µM in [2]; greater than 100 µM in [3]; 34 µM in [4]; 51.4 µM in assay [5]; 39.7 µM in [6]. Also, the TGI in assay [7] came to 39.9 µM; in [8] it was 43.9 µM; in assay [9], 35.4 µM; in assay [10] it was 91.3 µM.

In the case of `O=[N+]([O-])c1ccc2oc(=Nc3ccccc3)c(Nc3ccccc3)nc2c1`, the TGI was greater than 100 µM in assay [1]; greater than 100 µM in assay [2]; greater than 100 µM in assay [3]; greater than 100 µM in [4]; 93 µM in [5]; greater than 100 µM in [6]. The TGI in assay [7], in [8], in assay [9] and in [10] was greater than 100 µM in each case.

As to `CCOc1ccc(N=NC2C(=O)N(C(=O)CC(=O)Nc3ccccc3)N=C2C)cc1` (stereo not given), the TGI in assay [1] was 87.3 µM; in assay [2], greater than 100 µM; in [3], greater than 100 µM; in [4], greater than 100 µM; in [5], 90.7 µM; in [6], greater than 100 µM. The TGI in [7], in [8], in assay [9] and in assay [10] was greater than 100 µM each time.

For `CS[C@]12[C@@H]3C(=O)N(C)C(=O)[C@@H]3[C@](C)(C(=O)N1C)C(=O)N2c1ccccc1`, the TGI in assay [1], in assay [2], in assay [3], in [4], in assay [5] and in assay [6] was greater than 100 µM each time. Further, the TGI in assay [7], in [8], in [9] and in [10] was greater than 100 µM each time.

Consider `CC(C)(C)CC(C)(C)NC(=S)NO`, for which the TGI in assay [1], in [2], in assay [3], in assay [4], in assay [5] and in assay [6] was greater than 100 µM throughout. The TGI in assay [7], in assay [8], in assay [9] and in [10] was greater than 100 µM in each case.

For the molecule `CC12CCCCC1=[N+]([O-])C(C)(C)N2O` (stereo not given), the TGI in assay [1], in assay [2], in assay [3], in assay [4], in assay [5] and in assay [6] was greater than 100 µM in each case. The TGI in assay [7], in assay [8], in assay [9] and in assay [10] was greater than 100 µM in each case.

`CCCC1C(=O)Nc2cccc3ncn(c23)C1=O` (stereo not given): the TGI in assay [1], in assay [2], in [3], in assay [4], in [5] and in [6] was greater than 100 µM each time. For the same molecule, the TGI in [7], in assay [8], in assay [9] and in assay [10] was greater than 100 µM in each case.

For the molecule `Cc1nnc2n(c1=O)CCN2C`, the TGI in assay [1], in assay [2], in [3], in assay [4], in [5] and in [6] was greater than 100 µM each time. The TGI in assay [7], in assay [8], in [9] and in [10] was greater than 100 µM throughout.

Regarding `COC(=O)C(=O)C(C(=O)C(=O)Nc1cccc([N+](=O)[O-])c1)c1nc2ccc(Cl)cc2[nH]c1=O` (stereo not given), the TGI in assay [1], in [2], in assay [3], in [4], in [5] and in assay [6] was greater than 100 µM throughout. For the same molecule, the TGI in assay [7], in assay [8], in [9] and in assay [10] was greater than 100 µM in each case.

Take `O=C1C=C2CCC[C@H]3OC(=O)C[C@@]23CC1`: the TGI in [1], in assay [2], in assay [3], in assay [4], in [5] and in [6] was greater than 100 µM in each case. The TGI in assay [7], in assay [8], in [9] and in assay [10] was greater than 100 µM throughout.

Take `Cc1ccc(NC2=NCCO2)c2c1CCC2`: the TGI in assay [1] is greater than 100 µM; in assay [2], greater than 100 µM; in [3], greater than 100 µM; in assay [4], greater than 100 µM; in assay [5] it was 70 µM; in assay [6] it was greater than 100 µM. The TGI in assay [7], in [8], in assay [9] and in [10] was greater than 100 µM each time.

Regarding `COc1ccc(CNC(=O)[C@@H]2CCCN2C(=O)[C@@H](C)N(C)C(=O)[C@H](C(C)C)N(C)C(=O)[C@@H](NC(=O)[C@H](C(C)C)N(Cc2ccccc2)Cc2ccccc2)C(C)C)c(OC)c1` (Bn2Val-V[NMeV][dNMeA]P-X29), the TGI in assay [1] was greater than 100 µM; in [2] it was greater than 100 µM; in assay [3], greater than 100 µM; in assay [4] it was 14.4 µM; in assay [5], 9.1 µM; in [6] it was 10.2 µM. The TGI in [7] amounted to 21.1 µM; in [8] it was 9.3 µM; in assay [9], 22.1 µM; in assay [10], 12 µM.

Consider `Oc1ccccc1C1C=C(c2ccccc2)NC(N2CCCCC2)=C1c1nc2ccccc2[nH]1` (stereo not given), for which the TGI came out at 31 µM in assay [1]; 27.5 µM in assay [2]; 29.2 µM in assay [3]; 30.7 µM in assay [4]; 26.9 µM in assay [5]; 30.6 µM in assay [6]. The TGI in [7] was 27.4 µM; in [8], 30.3 µM; in [9] it was 35.1 µM; in [10] it was 18.8 µM.

Regarding `OCC(CCc1ccccc1I)C1=CCC2(CC1)OCCO2` (stereo not given), the TGI amounted to 45.4 µM in assay [1]; 50 µM in [2]; 62.4 µM in assay [3]; 69.9 µM in assay [4]; 28.6 µM in [5]; 35 µM in assay [6]. The TGI in assay [7] was 37.4 µM; in assay [8], 48.9 µM; in assay [9] it was 88.2 µM; in assay [10], 58.4 µM.

Regarding `C[N+](C)(C)C=Nc1cccc2c1CCCC2`, the TGI in assay [1], in [2], in assay [3], in assay [4], in [5] and in assay [6] was greater than 100 µM in each case. In addition, the TGI in assay [7], in [8], in assay [9] and in assay [10] was greater than 100 µM each time.
